# Measurements from patent publication US9181309B1, “Peptide regulation of maize defense responses” (The United States of America, as represented by the …, priority 2011, dated 2015).
# Tests used:
# [1] = system: defense-related genes in excised maize leaves; experiment: Excised leaf bioassay, semi-quantitative RT-PCR of defense marker genes; type: in vivo, Zea mays
# Experimental: Over a 16.5 hour time-course, excised maize leaves were supplied with either a solution of ZmPEP3 peptide or with a water control. Based on the average volume of ZmPEP3 solution taken up by the maize leaves, each leaf was exposed to around 1.8 nMols of peptide per gram of leaf material over the time course study. Zero hour treatments indicate leaves that were immediately harvested at the beginning of the study; the other time points refer to hours elapsed after leaves were excised and placed into solution. As a control to observe herbivory-induced expression of these genes, a timecourse of exposure to herbivory by Spodoptera frugiperda (fall armyworm, FAW) was performed for comparison. As described in the Material and Methods, when using the semi-quantitative RT-PCR analysis technique, observed band intensity is indicative of initial transcript abundance in a sample, thus bands of greater intensity represent sample with enriched transcript abundance.
# Maize tissues that had been harvested and frozen in liquid nitrogen were ground to a fine powder using a porcelain mortar and pestle. Approximately 100 mg of frozen powdered plant material was transferred to a 2 mL microcentrifuge tubes to which 1 mL of Trizol reagent (Invitrogen, Carlsbad Calif.) was added. RNA isolation was performed as per the Trizol instructions, supplemented by an acid:phenol:chloroform partitioning step to minimize contaminating DNA. RNA was solublized in 50 μL diethylpyrocarbonate (DEPC)-treated water. RNA yield was quantified by measuring the A260, and the samples were stored at −20° C.
# RNA was reverse transcribed using all components from the RETROscript kit (Ambion, Austin Tex.). The 20 μL reverse transcription reactions were assembled as per kit instructions The reverse transcription reaction was allowed to proceed for one hour at 44° C., followed by a ten minute incubation at 92° C.
# Semi-quantitative RT-PCR reactions were assembled as follows: 1.2 μL of the cDNA generated in the reverse transcription reactions was used as template for 25 μL PCR reactions. Each reaction contained Platinum 10×PCR buffer (Invitrogen, Carlsbad Calif.) and the final concentration of Mg^2+ and dNTPs were 1.5 mM and 200 μM, respectively. Platinum Taq polymerase (Invitrogen, Carlsbad Calif.) was added at 0.5 units per reaction, while primers were used at 0.4 μM each. All primers were designed to for an annealing temperature of 56° C., to amplify a product of 250 to 350 base pairs and to span introns when possible. The ZmActin1 gene transcript (GenBank# J01238) has been described in the literature as an effective housekeeping control transcript for the study of maize defense gene expression (Erb et al., 2009), and was therefore used to permit comparisons of relative transcript abundance from sample to sample. Genes to be analyzed for responsiveness to ZmPep3 were all shown in previous work to be associated with either pathogen or herbivore resistance (Erb et al., Plant J 59: 292, 2009; Doehlemann et al., Plant J. 56:181, 2008; Köliner et al., Plant Cell 20: 482, 2008; Chen et al., Phytopathology 94:938, 2004; Chen et al., Phytopathology 97:1094, 2007; Schnee et al., Plant Physiol 130: 2049, 2002; Frey et al., Proc Natl Acad Sci USA. 97:14801, 2000).
# maize leaf transcripts = experiment: Microarray analysis of transcript levels in ZmPep3 vs water-treated leaves; type: in vivo, Zea mays; conditions: leaves treated for 12 h
# Excerpt: The gene transcripts shown in FIG. 4 are a subset of the defense-related genes found to be induced by ZmPEP3 peptide in the excised leaf assays. Including these, a total of twenty genes have been identified as ZmPEP3-responsive. All can be classified as pertaining to four broad categories of defense-related genes; those encoding proteins that are directly antimicrobial, those encoding proteins that synthesize secondary metabolites associated with defense, those encoding proteins that are involved in reactive oxygen species-based signal transduction and detoxification, and those that encode biosynthetic proteins for the two main plant small molecule hormone regulators of defense, ethylene and oxylipins. To obtain a more global perspective of gene expression regulated by ZmPEP3, a microarray experiment was performed to compare expression levels in ZmPEP3 vs. water-treated leaves after […]. […] In FIG. 7, real-time quantification of expression levels of genes associated with direct and indirect herbivore defenses confirms that ZmPEP3 is a strong regulator of both defense responses. […] FIG. 8 lists defense-associated genes discovered to be induced by the ZmPEP3.
# A microarray analysis of transcript levels in leaves that were treated for 12 h with either water or ZmPep3 was employed to better characterize the breadth of ZmPep3-regulated responses. […]
# Cotesia marginiventris = experiment: Olfactometer assay of parasitoid wasp attraction to pretreated leaves; type: in vivo
# Excerpt: The generalist parasitoid Cotesia marginiventris attacks many Lepidopteran species including S. exigua and is attracted to herbivory-induced maize volatiles (Turlings et al., Science 250:1251, 1990). Precisely which components are attractive has been difficult to determine, and the wasps respond strongly to unidentified minor components when subjected to gas chromatograph-coupled electroantennography (Gouinguene et al., J Chem Ecol. 31:1023, 2005). To determine whether the ZmPep3-induced blend was attractive to naïve C. marginiventris, olfactometer assays were conducted with leaves pretreated with ZmPep3, Gln-18:3 or water for 16 h. To ensure that any preference was due to elicited plant responses and not to an inherent attraction or repellence to any treatment substance, leaves treated at time of assay were used as controls. […] Thus, ZmPep3-regulated responses are sufficient to generate effective indirect defenses against Lepidopteran herbivores.
# S. exigua = experiment: Larval growth on peptide-pretreated leaves; type: in vivo, Spodoptera exigua; conditions: compared to untreated or water-treated leaves
# Experimental: To assess the role of ZmPep3-induced direct defenses, S. exigua growth on peptide-pretreated leaves was evaluated. […] This effect was expected given the potency of ZmPep3-induced proteins and benzoxazinoids against herbivores.
# [2] = system: herbivore defense genes in maize leaves; experiment: Real time qPCR / qRT-PCR of defense and phytohormone biosynthesis genes in treated leaves
# [3] = later time points, vs water-supplied leaves
# [4] = equivalent molar concentrations
# [5] = low equivalent quantities of elicitor
# [6] = real-time quantification, peptide-treated leaves
substance,measurement,setting,value
ZmPEP3: 23 amino acid maize plant elicitor peptide TRTPPWPPCPPEEGSGGNGGSHN (SEQ ID NO: 3) (Zea mays),number of defense-related genes identified as ZmPEP3-responsive,[1]; excised leaf assays,twenty
same,time at which AOS transcript increases in abundance,"[1]; excised leaves, around 1.8 nMols of peptide per gram of leaf",2 h
same,endochitinase A transcript levels,"[1]; excised leaves, around 1.8 nMols of peptide per gram of leaf, early time points, vs water",increased transcript levels at all early time points
same,IGL expression,[1]; later time points,strongly induced
same,AOS transcript levels,[1]; [3],markedly increased
same,TPS23 transcript abundance,[1]; [3],increased greatly
same,peroxidase transcript accumulation,"[1]; later timepoints, not detectable in water-supplied leaves",marked induction of transcript accumulation
same,BX1 and BX2 microarray probe sets,maize leaf transcripts,upregulated
same,SerPIN probe set in microarray,maize leaf transcripts,most highly upregulated probe set
same,wasps attracted to ZmPep3-pretreated vs water-pretreated leaves,Cotesia marginiventris; 16 h pretreatment,more wasps were attracted
same,wasp preference for leaves pretreated 16 h vs leaves treated at time of assay,Cotesia marginiventris; naive C. marginiventris,strongly preferred
same,less biomass gain of second instar larvae,S. exigua,40%
same,BX1 and BX2 expression by qRT-PCR,[2]; 12 h post-treatment,expressed
same,"TPS10 and TPS23 gene expression, ZmPep3 versus Gln-18:3",[2]; [4],more strongly induced
same,expression of genes encoding Terpene Synthases (TPS) 10 and 23,[2]; [4],strongly activate expression
same,SerPIN and WIP1 expression by qRT-PCR,[2]; in vivo,highly expressed
same,expression of AAMT1 and IGL genes,[2]; in vivo,induced
same,"ACC Oxidase and AOC transcript, ZmPep3-treated compared to Gln-18:3-treated leaves",[2]; [5],greater quantities of transcript
same,"accumulation of transcripts for ACC Oxidase, Allene Oxide Synthase and Allene Oxide Cyclase",[2]; [5],significantly increased accumulation of transcripts
same,upregulation of genes encoding proteinase inhibitor proteins,[2]; [6],more than a thousand-fold
same,upregulation of genes encoding terpene synthases,[2]; [6],more than a thousand-fold
